Reference: patent publication US20250009819A1, “NOVEL PROBIOTICS AND USE THEREOF” (PBLBIOLAB CO., LTD., priority 2021, published 2025)

Assays:
[1] = Antioxidant activity (DPPH, in vitro); assay type: biochemical; conditions: DPPH 0.2 mM; lactic acid bacteria suspension 1×10^8 CFU/ml; 37° C. 20 min
Outline: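 Lactic acid bacteria suspension (1×10^8 CFU/ml) or vitamin C (1 g/ml) was mixed with 0.2 mM ethanolic DPPH and incubated 20 min at 37° C. After centrifugation, supernatant absorbance at 517 nm gave the antioxidant activity.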

BDNF = BDNF expression in SH-SY5Y cells; assay type: cell-based; conditions: LPS 200 ng/ml; lactic acid bacteria 1×10^4 CFU/ml; 24 h
Description: (§1) SH-SY5Y cells obtained from the Korean Cell Line Bank were cultured in DMEM medium supplemented with 10% FBS and 1% antibiotics, and dispensed at 2×10^6 cells per well in a 12-well plate. Then, LPS (200 ng/ml) was added to each well along with lactic acid bacteria (1×10^4 CFU/ml) and incubated for 24 h. The cells and supernatants were collected, sonicated and centrifuged, and the amount of BDNF in the supernatant was measured by ELISA kit.

Neuropeptide Y (NPY) = Neuropeptide Y (NPY) expression in PC12 phaeochromocytoma cells; assay type: cell-based; conditions: LPS 200 ng/ml; lactic acid bacteria 1×10^4 CFU/ml; 24 hr
Description: as §1, with “PC12” for “SH-SY5Y”, “1×10^6” for “2×10^6”, “hr.” for “h.”, “NPY” for “BDNF”

Clostridium difficile = Clostridium difficile proliferation in gut microbiota (PCR); assay type: cell-based; conditions: for Gut microbiota Inhibition of difficile bacteria proliferation: human feces culture, lactic acid bacteria 1×10^6 CFU/mL, anaerobic 24 hr
Outline: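 Human fecal supernatant, diluted 10,000-fold in GAM, co-cultured anaerobically 24 h with lactic acid bacteria (1×10^6 CFU/mL). C. difficile quantified by PCR on pellet DNA (95 °C 30 s; 42 cycles 95 °C 5 s/72 °C 30 s); supernatant LPS measured by ELISA.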

[2] = test system: immunosuppressed animals induced by anticancer drug (cyclophosphamide); assay: Immunosuppressed animals induced by cyclophosphamide: colitis improvement (colon); assay type: in vivo, C57BL/6 male mice; conditions: cyclophosphamide (CP)-treated mice, 1×10^9 CFU/mouse orally once a day for 5 days
Description: To 100 mg of colon tissue, 200 μl of 10 mM potassium phosphate buffer (pH 7.0) containing 0.5% hexadecyl trimethyl ammonium bromide was added and homogenized. Then, the supernatant was obtained by centrifugation for 10 minutes at 4° C. and 10,000 g. A volume of 50 μl of the supernatant was added to 0.95 mk of reaction solution (containing 1.6 mM tetramethyl benzidine and 0.1 mM H2O2), reacted at 37° C., and absorbance was monitored over time at 650 nm.
(§2) Hippocampus, colon, and spleen tissues were homogenized by adding 1 ml of RIPA buffer (Gibco) containing protease inhibitor cocktail and centrifuged at 4° C., 13000 rpm for 15 min to obtain supernatant. Indicators of this supernatant were measured using an ELISA kit (Ebioscience).
C57BL/6 male mice (5 weeks old, 19-21 g) were divided (6 mice in each group) and acclimatized to the laboratory for 1 week. To induce intestinal and brain diseases, the mice were administered with cyclophosphamide (CP, 150 mg/kg, dissolved in physiological saline) for 1 day, rested for 1 day, and then administered intraperitoneally the next day. Meanwhile, the normal group was administered intraperitoneally with 0.1 ml of physiological saline. […] The day following the conclusion of sample administration, the experimental animals were sacrificed, and samples from the brain hippocampus, colon, and spleen were collected. In the Hippocampus, inflammatory indicators, such as IFN-γ, TNF-α, and IL-10, were measured using ELISA. In the colon, intestinal length and inflammatory indicators, such as IFN-γ, TNF-α, and IL-10, were measured. In the spleen, Th1 cells and Treg cells were measured by FACS (Fluorescence-Activated Cell Sorting).

healthy animal = assay: Healthy animal: spleen parameters; assay type: in vivo, C57BL/6 male mice; conditions: healthy mice, 1×10^9 CFU/mouse orally once a day for 5 days; for Foxp3 (fold change) / Tbet (fold change) / Tbet/Foxp3: spleen qPCR; for IFN-γ/IL-10 / IL-10 / Interferon (IFN)-γ / NK cell cytoxicity (%) / Phagocytosis (%) / TNF-a/IL-10 / TNF-α: spleen
Description: as §2
mRNA was isolated from spleen tissue using the RNA Isolation Kit: RNeasy Mini Kit (QIAGEN), converted to cDNA, and qPCR was performed to measure the expression rates of Tbet, Foxp3, and glyceraldehyde 3-phosphate dehydrogenase (GAPDH). The reaction product was first treated at 95° C. for 30 seconds, followed by 38 cycles of 5 seconds at 95° C. and 30 seconds at 72° C. for analysis.
C57BL/6 male mice (5 weeks old, 19-21 g) were divided (6 mice in each group) and acclimatized to the laboratory for 1 week. The mice were orally administered once a day for 5 days with lactic acid bacteria as a test sample suspended in physiological saline solution at a concentration of 1×10^9 CFU per mouse (NK210 alone (LR): 1×10^9 CFU/mouse, NK219 alone (BL): 1×10^9 CFU/mouse, combined (210+219): 210, 8×10^8 CFU/mouse and 219, 2×10^8 CFU/mouse). […] The day following the conclusion of sample administration, the experimental animals were sacrificed, and samples from the brain hippocampus, colon, and spleen were collected. In the Hippocampus, inflammatory indicators, such as IFN-γ, TNF-α, and IL-10, were measured using ELISA. In the colon, intestinal length and inflammatory indicators, such as IFN-γ, TNF-α, and IL-10, were measured. In the spleen, Th1 cells and Treg cells were measured by FACS (Fluorescence-Activated Cell Sorting).

Substance | Antioxidant activity [1] | SHSY5Y cell Induction of BDNF expression (BDNF) | PC12 cell Induction of NPY expression (Neuropeptide Y (NPY)) | Gut microbiota Inhibition of difficile bacteria proliferation (Clostridium difficile) | Colon (cm) [2] | IFN-γ/IL-10 [2] | IL-10 [2] | Interferon (IFN)-γ [2] | MPO activity [2] | TNF-a/IL-10 [2] | TNF-α [2] | Foxp3 (fold change) (healthy animal) | Tbet (fold change) (healthy animal) | Tbet/Foxp3 (healthy animal) | IFN-γ/IL-10 (healthy animal) | IL-10 (healthy animal) | Interferon (IFN)-γ (healthy animal) | NK cell cytoxicity (%) (healthy animal) | Phagocytosis (%) (healthy animal) | TNF-a/IL-10 (healthy animal) | further results
Bifidobacterium longum NK219 | +++ (very strongly (+++; >90%)) | +++ (very strongly (+++; >90%)) | ++ (strongly (++; >60-90%)) | +++ (very strongly (+++; >90%)) | 4.95 cm | 3.32 | 13.00 pg/mg | 38.64 pg/mg | 4.62 μUnit/mg | 2.12 | 26.73 pg/mg | 1.05 fold change | 1.80 fold change | 1.86 | 1.35 | 9.29 pg/mg | 12.56 pg/mg | 8.52% | 64.57% | 0.38 | TNF-α (healthy animal): 3.49 pg/mg
Lactobacillus rhamnosus NK210 | +++ (very strongly (+++; >90%)) | ++ (strongly (++; >60-90%)) | +++ (very strongly (+++; >90%)) | +++ (very strongly (+++; >90%)) | 4.98 cm | 3.05 | 9.65 pg/mg | 28.79 pg/mg | 4.79 μUnit/mg | 2.19 | 20.60 pg/mg | 1.05 fold change | 1.41 fold change | 1.45 | 1.38 | 9.45 pg/mg | 13.02 pg/mg | 6.65% | 50.03% | 0.37 | TNF-α (healthy animal): 3.48 pg/mg
Lactococcus lactis NK209 | + (weakly (+; >20-60%)) | + (weakly (+; >20-60%)) | + (weakly (+; >20-60%)) | +++ (very strongly (+++; >90%)) | – | – | – | – | – | – | – | – | – | – | – | – | – | – | – | – | inhibiting the proliferation of intestinal Clostridium difficile (Clostridium difficile; result in words, summary of Table 2): significant effect
